A short description of data set [1]: Sequestration of ATP by nucleopeptide (phase transition). The format is binding. Here is the method:
(§1) Sample Preparation and Process for Sequestering ATP by Nucleopeptide: Typically, nucleopeptide […] was dissolved in 1 mL of PBS buffer. A minimal amount of sodium hydroxide was used to adjust the final pH to 7.4 to form 5.0 wt % solution of the nucleopeptide. ATP or ADP was dissolved in PBS buffer at the concentration of 100 mM with the final pH of 7.4. To test sequestration ability of nucleopeptide, we mixed the solution of 5.0 wt % of nucleopeptide with ATP (ADP) in different molar ratio and stirred the mixture with pipettor gently. The mixture was kept at room temperature and used for different characterizations. The sequestration of ATP (or ADP) results in phase transition, from the solution to precipitates or hydrogel, which is observable by naked eyes. Such phase transitions were further characterized by TEM, CD, SLS and rheology according to the same procedure for sample preparation.

Data set [2] concerns MES-SA/dx5 cells. Description: MTT assay. The format is cell-based. To be noted: 48 hours. Here is the method:
Cell culture and MTT assay: Cell culture was carried out with MES-SA/dx5 cells purchased from Sigma-Aldrich Corporation. These cells were cultured in Macyo's 5A medium supplemented with 10% v/v fetal bovine serum, 100 U/mL penicillin and 100 μg/mL streptomycin. The condition for cell culture was 37° C. in a humidified atmosphere of 5% CO2. The MTT assay was carried out using MES-SA/dx5 cells seeded in a 96-well plate with a density of 1*10^4 cells per-well (total medium volume of 100 μL). 24 hours post seeding, after the removal of the medium, solutions with serial of concentrations (5 concentrations) of different nucleopeptides were added to each well. Cells without the treatment of the precursors were used as the control. At designated time (24/48/72 hours), 10 μL MTT solution (5 mg/mL) was added to each well and incubated at 37° C. for another 4 h, and then 100 μL of SDS-HCl solution was added to stop the reduction reaction and dissolve the purple formazan. The absorbance of each well at 595 nm was measured by a multimode microplate reader. The cytotoxicity assay was performed three times and the average value of the three measurements was taken. All the statistical analysis used mean±SEM. The range of SEM is from 0.04 to 2.21.

Data set [3] relates to HS-5 (Human Bone Marrow Stromal) cell lines. Description: Biocompatibility with HS-5 cell lines. The format is cell-based. To be noted: HS-5 cells, over 3 days, concentration range 20-500 μM. The text has this: The biocompatibility of peptide 1 with HS-5 (Human Bone Marrow Stromal) cell lines was investigated over 3 days. […] It is expected, therefore, that peptide 1 is also compatible with other types of physiologically normal cells.

The nature of data set [4]: Hydrogelation / gelation time by vial inverse method. Type of data set: physicochemical. The procedure: Hydrogel Preparation: Compound 1 (5.0 mg) was dissolved in 1 mL of aqueous buffer (sodium hydroxide was used to adjust the final pH to 7.4), and the hydrogels were formed after the addition of different equivalents of small molecules (initial concentration is 100 mM), the final concentration of 1 is 0.4 wt % in all hydrogels. The gelation time of 1 with different bioactive small molecules was determined by vial inverse method.

Data set [5] can be described thus: Rheology (storage and loss moduli). The format is physicochemical. The procedure:
Rheology Experiments: The rheological tests were performed on TA ARES-G2 rheometer, parallel-plate geometry with an upper plate diameter of 25 mm and a gap of 0.4 mm. During the measurement, the stage temperature was maintained at 25° C. by Peltier heating/cooling system. The hydrogel was loaded into stage by spatula. For the rheology testing in Examples 1-7, a time sweep was performed at the frequency of 6.28 rad/s and the strain for 1.0%, and a frequency sweep was performed at the range of 0.1 to 200 rad/s and strain is 1.0%. For the rheology testing in Examples 8-12, a strain sweep (0.1% to 100%) was performed at the frequency of 6.28 rad/s, and a frequency sweep was performed at the range of 0.1 to 200 rad/s and strain is 1.0%.

Data set [6] can be described thus: Doxorubicin release from hydrogel. Conditions: hydrogel of 1 (0.4 wt %) formed with 1 equivalent pyridoxal, Dox 200 μg/mL, 37° C. Type of data set: physicochemical. Here is the method:
To load the drug, a solution of Dox (1 mg/mL) was added during the gelling process. After the hydrogel formed by addition of pyridoxal or ATP (final concentration of 1 is 0.4 wt % and doxorubicin was 200 μg/mL). 0.25 mL of PBS (0.1 M phosphate-buffered saline (PBS, pH 7.4) or 0.1 M acetate buffer solution (pH 5.0)) was added onto the surface of the hydrogels, 0.2 mL of solution was taken out at the desired time point and 0.2 mL of PBS was added back. For the following time points, 0.2 mL of PBS was taken out and 0.2 mL of PBS was added back at each point. Using this process, the release of Dox was monitored by measuring the absorbance of Dox at wavelength of 480 nm, and its release profile calculated. The experiment was performed at 37° C. in triplicate. The results are shown in FIGS. 9A-B. As expected, the hydrogel releases the Dox according to the type of small bioactive molecules and pH.

Data set [7] is described as follows: Interaction of nucleopeptide with ADP (phase transition). The format is binding. To be noted: PBS buffer pH 7.4. The procedure: as §1
For a further data set, the target named is MBP-ASC^PYD (Homo sapiens, UniProt Q9ULZ3). Description: TEM of MBP-ASC^PYD oligomerization on co-incubation with P5P. Type of data set: biochemical. To be noted: P5P 100 μM co-incubated with MBP-ASC^PYD (1 mg/mL, ~18 μM).
In data set [8] the test system is MES-SA/dx5 cells. Description: CLSM of inhibition of Dox efflux pump. To be noted: MES-SA/dx5 cells without NP1 treatment, five hours after changing to medium without Dox. The format is cell-based. Here is the method:
Confocal Laser Scanning Microscopy (CLSM) Images of the Inhibition of Efflux Pump: To determine the potential drug efflux inhibitory effect by nucleopeptides, the drug efflux of free DOX was evaluated without or with incubation with nucleopeptide in efflux pumps overexpressing MES-SA/dx5 cells. After seeding 1.5×10^5 cells into 3.5 cm confocal dish and incubating at 37° C. for 24 h, the cells were incubated either with 10 μM free Dox or Dox with different concentration of nucleopeptide for 4 h. Then the medium was removed and the cells were washed three times with culture medium, and subsequently incubated with fresh complete medium for different time intervals (0, 2 or 5 h). At the end of incubation time, the cells were washed twice by live cell imaging buffer and stained nucleus by Hoechst 33342 for 10 minutes. After washed twice by live cell imaging, the cells were imaged immediately by Zeiss 880 microscope at the lens of 60×.

The mark [9] stands for this setting: 1 at 0.4 wt %, 1 equivalent folinic acid.
[10] abbreviates: 1 at 0.4 wt %, 1 equivalent pyridoxal.
[11] abbreviates: 1 at 0.4 wt %, 4 equivalents folinic acid.
Where [12] appears, read: 1 at 0.4 wt %, 4 equivalents pyridoxal.

Square brackets hold non-standard residues; d marks the D form. Ends that are not written are not given here. Peptide text beside a SMILES is read from it. * marks the point of attachment. Acetyl(thymin-1-yl) = Cc1cn(CC(=O)*)c(=O)[nH]c1=O; Acetyl(2-naphthyl) = O=C(Cc1ccc2ccccc2c1)*

Sequence of MBP-ASC^PYD (Q9ULZ3 1-91 limits assumed): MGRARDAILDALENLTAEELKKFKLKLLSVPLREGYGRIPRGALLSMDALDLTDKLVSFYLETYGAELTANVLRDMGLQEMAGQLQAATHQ

As for thyminylacetyl-FF [NP11], the “ability to sequester ATP” value in [1] is given as “unable to sequester ATP”.
In the case of “thyminylacetyl-FFKKFK ({Acetyl(thymin-1-yl)}-FFKKFK) [NP8]”, in data set [1], the “ability to sequester ATP” value was “unable to sequester ATP”.
The same measure, in the same setting: the same measure for thyminylacetyl-FFKK [NP9]: “unable to sequester ATP”.
For the compound `Cc1cn(CC(=O)N[C@H](Cc2ccccc2)C(=O)N[C@H](Cc2ccccc2)C(=O)N[C@H](CCCCN)C(=O)N[C@H](CCCCN)C(=O)N[C@H](Cc2ccccc2)C(=O)N[C@H](CCCCN)C(=O)N[C@H](CC(C)C)C(=O)N[C@H](CCCCN)C(=O)N[C@H](CC(C)C)C(=O)O)c(=O)[nH]c1=O` [NP1, thyminylacetyl-ffkkfklkl] ({Acetyl(thymin-1-yl)}-[dF][dF][dK][dK][dF][dK][dL][dK][dL]-OH), the cytotoxicity entry in the data set with MES-SA/dx5 cells [2] (NP1 by itself) is on record as “little cytotoxicity”.
On to `CC(C)C[C@H](NC(=O)[C@H](CCCCN)NC(=O)[C@H](CC(C)C)NC(=O)[C@H](CCCCN)NC(=O)[C@H](Cc1ccccc1)NC(=O)[C@H](CCCCN)NC(=O)[C@H](CCCCN)NC(=O)[C@H](Cc1ccccc1)NC(=O)[C@H](Cc1ccccc1)NC(=O)Cc1ccc2ccccc2c1)C(=O)O` [Peptide 1] ({Acetyl(2-naphthyl)}-FFKKFKLKL-OH; C-terminus assumed), for which the biocompatibility result in [3] was “cell-compatible”. Also, in data set [4] (1 alone, 0.4 wt %, pH 7.4), the “tendency for hydrogelation (state in aqueous solution)” value is “transparent viscous solution”. Besides, the gelation time in data set [4] (1 at 0.4 wt %, 1 equivalent AMP) is 11 s; in data set [4] (setting [9]), “about 8 seconds”; in data set [4] (1 at 0.4 wt %, 1 or 4 equivalents ATP), “about 7 seconds”; in data set [4] (1 at 0.4 wt %, 4 equivalents AMP), 5 s; in [4] (setting [11]), ~7 s; in data set [4] (setting [12]) it was ≤ 19 s. The gelation time in data set [4] (1 at 0.4 wt %, four molar equivalents of P5P) was 4 s; in data set [4] (1 at 0.4 wt %, pH 7.4, equal molar P5P), ≤ 10 s; in [4] (1 at 0.4 wt %, two to four molar equivalents of P5P), ≤ 10 s. For the same compound, the “gelation time (sol-gel phase transition)” value in data set [4] (setting [10]) came out at 190 s. In addition, the storage modulus in [5] (setting [9]) was 64 Pa; in [5] (setting [11]), 78 Pa. In [5] (setting [10]), the “cross point of G′ and G″” value is 77 s. Besides, the “storage modulus G′” value is 55 Pa in data set [5] (setting [10]); 980 Pa in data set [5] (setting [12]); 40 Pa in data set [5] (1 at 0.4 wt %, one equivalent of P5P); “around 6 Pa” in data set [5] (1 itself, 0.4 wt %, after 1 h incubation). Besides, the mechanical properties result in data set [5] (1 in the presence of ATP or AMP) is reported as “change little”. Besides, the “G′ relative to hydrogel formed with 1 equivalent pyridoxal” value in data set [5] (4 equivalents pyridoxal) was determined as 18 times. For the same compound, the “G′ relative to G′ of 1 itself” value in data set [5] (one equivalent of P5P) is 8 times. The “release of doxorubicin from hydrogel” value in data set [6] (pH 5.0, 12 h) was “about 85%”; in data set [6] (pH 7.4, 12 h) it was 50%.
Regarding thyminylacetyl-ffkkfkl [NP3], the “ability to sequester ATP” value in data set [1] is listed as “able to sequester ATP”.
For thyminylacetyl-FFK [NP10], in [1], the “ability to sequester ATP” value is “unable to sequester ATP”.
Take “thyminylacetyl-FFKKF ({Acetyl(thymin-1-yl)}-FFKKF) [NP6]”: the “ability to sequester ATP” value in data set [1] is “able to sequester ATP”.
On the same count and under the same terms, the same measure for thyminylacetyl-ffkkf [NP5]: “able to sequester ATP”.
As to “thyminylacetyl-FFKKFKLKL ({Acetyl(thymin-1-yl)}-FFKKFKLKL) [NP2]”, the “ability to sequester ATP” value in data set [1] is on record as “able to sequester ATP”. The “phase transition after addition of ATP” value in data set [1] (PBS buffer pH 7.4) was “precipitates”. Moreover, in [7], the “phase transition in the presence of ADP” value is reported as “remains as a transparent solution”.
For “thyminylacetyl-FFKKFKL ({Acetyl(thymin-1-yl)}-FFKKFKL) [NP4]”, the “ability to sequester ATP” value in data set [1] was “able to sequester ATP”.
On the same count and under the same terms, then “thyminylacetyl-FFKKFKLK ({Acetyl(thymin-1-yl)}-FFKKFKLK) [NP7]”, with “unable to sequester ATP”.
Regarding `Cc1ncc(COP(=O)(O)O)c(C=O)c1O` [Peptide P5P, pyridoxal-5-phosphate], the “oligomerization of MBP-ASC^PYD” value at MBP-ASC^PYD is reported as “modulates the oligomerization”.
For “thyminylacetyl-KKFKLKL ({Acetyl(thymin-1-yl)}-KKFKLKL) [NP12]”, in data set [1], the “ability to sequester ATP” value was “unable to sequester ATP”.
For `COc1cccc2c1C(=O)c1c(O)c3c(c(O)c1C2=O)C[C@@](O)(C(=O)CO)C[C@@H]3O[C@H]1C[C@H](N)[C@H](O)[C@H](C)O1` [Dox, doxorubicin, reference compound], the “cellular retention of Dox (efflux)” value in the data set with MES-SA/dx5 cells [8] is “little Dox”. In addition, the cell death with MES-SA/dx5 cells [2] (Dox alone (5 mm as printed)) is given as 46%.
